Measurements: patent US20250154154A1 (Relay Binney Street, 2nd Floor, priority 2020, published 2025)

How the values were obtained:
SRC = SRC (Homo sapiens, UniProt P12931); assay: SRC Biochemical Assay Protocol (microfluidic mobility shift assay, FLPeptide4 substrate)
In short: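 Recombinant SRC (0.26 nM) preincubated 30 min at RT with compound (0.0017–100 μM) and 1.5 μM FLPeptide4, then 50 μM ATP added; 90 min reaction in HEPES pH 7.4, 10 mM MgCl2, 1% DMSO, EDTA-quenched. Phosphopeptide quantified by microfluidic mobility shift; IC50 from 4-parameter logistic fit.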

RBE cells = assay: Cell Viability Protocol (CellTiterGlo), RBE cells; type: cell-based; conditions: RBE or SNU-1079 cells, 72 or 120 hour, cell line and time not given
In short: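 RBE cells plated at 1200/well in RPMI 1640 with 10% FBS, incubated 24 h, then dosed with compound from DMSO stocks and incubated 72 or 120 h at 37° C. CellTiterGlo luminescence normalised to DMSO control; IC50 from 4-parameter fit.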

[1] = system: phospho-S6RP (Ser 235/236) in RBE cells; assay: Cellular Proliferation Protocol (cellular phospho-S6RP HTRF), RBE cells; type: cell-based; conditions: 6 hours treatment, RBE or SNU-1079 cells, cell line not given
Experimental: Cellular Proliferation Protocol
Cellular phospho-S6RP (Ser 235/236) was measured using a Fluorescence Resonance Energy Transfer (FRET) sandwich assay format (Cisbio HTRF Cat. No. 64RP6PEG). This format uses 2 different, labelled antibodies (Eu^3+-Cryptate donor and d2 acceptor) that positively modulate a specific signal in proportion to phospho-S6RP (Ser 235/236) directly in cells. RBE or SNU-1079 cells were cultivated in T-75 flasks at 37° C., 5% CO2, 95% relative humidity in RPMI 1640 medium with 10% FBS and 1% Penicillin/Streptomycin and detached with trypsin/EDTA at 80-90% confluency. Cells were then seeded in 40 μL volume per well in 384-well flat-bottom polystyrene microplates (Corning Cat. No. 3570) at a seeding density of 2000 cells/well for RBE and 3000 cells/well for SNU-1079 followed by 24 hour incubation at 37° C., 5% CO2, 95% relative humidity. On the next day, compounds were diluted to […] the indicated concentrations and 40 nL of these treatment compounds, along with DMSO vehicle control, were added to the cells (final concentration of compounds is then the indicated concentrations). Treatment was carried out for 6 hours at 37° C., 5% CO2, 95% relative humidity after which the plates were cooled to room temperature before aspirating the medium. Cells were then lysed on a shaker for 45 minutes at room temperature with 20 μL of 1× supplemented lysis buffer per well. After lysis, 5 μL of pre-mixed antibodies was added per well. Plates were covered with black sealing film and incubated overnight at room temperature on a shaker before being read on a PerkinElmer EnVision microplate reader. Percent activation was calculated relative to DMSO control and IC50 values were obtained from dose-response data fitted to a 4-parameter curve.

Sequence of SRC (P12931 whole entry, species assumed): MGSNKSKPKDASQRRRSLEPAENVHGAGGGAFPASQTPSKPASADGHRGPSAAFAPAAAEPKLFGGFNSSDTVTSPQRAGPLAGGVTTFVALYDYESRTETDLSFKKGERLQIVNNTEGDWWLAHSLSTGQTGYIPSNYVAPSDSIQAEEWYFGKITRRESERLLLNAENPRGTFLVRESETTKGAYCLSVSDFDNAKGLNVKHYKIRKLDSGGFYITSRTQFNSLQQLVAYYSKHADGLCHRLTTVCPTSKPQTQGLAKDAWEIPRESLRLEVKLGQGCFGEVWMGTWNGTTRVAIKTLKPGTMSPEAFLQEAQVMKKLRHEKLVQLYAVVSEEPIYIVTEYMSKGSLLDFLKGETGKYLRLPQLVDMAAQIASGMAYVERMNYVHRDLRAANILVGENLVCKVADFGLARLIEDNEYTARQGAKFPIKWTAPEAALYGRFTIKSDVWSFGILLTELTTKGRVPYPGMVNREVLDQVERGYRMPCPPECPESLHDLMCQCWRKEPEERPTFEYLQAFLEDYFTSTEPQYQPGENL

| Structure (SMILES) | IC50 (SRC) | IC50 (RBE cells) | IC50 [1] | IC50 ([1]; 6 h) |
| --- | --- | --- | --- | --- |
| C=CC(=O)N1CC[C@@H](N2CC(C#Cc3c(-c4ccc(OC)cc4)c4c(N)ncnc4n3C)C2)[C@@H](O)C1 [II-25] | 10 to 1000 nM | 10 to 1000 nM | 10 to 1000 nM | – |
| C=CC(=O)N1C[C@@H]2[C@@H](C#Cc3c(-c4ccc(Oc5ccccc5)c(OC)c4)c4c(N)ncnc4n3C)[C@@H]2C1 [II-27] | ≤ 10 nM | ≤ 10 nM | ≤ 10 nM | – |
| C=CC(=O)N1CCC(N2CC(C#Cc3c(-c4ccc(Oc5ccccc5)c(OC(F)F)c4)c4c(N)ncnc4n3C)C2)CC1 [II-35, 1-(4-(3-((4-amino-5-(3-(difluoromethoxy)-4-phenoxyphenyl)-7-methyl-7H-pyrrolo[2,3-d]pyrimidin-6-yl)ethynyl)azetidin-1-yl)piperidin-1-yl)prop-2-en-1-one] | 10 to 1000 nM | 10 to 1000 nM | – | 10 to 1000 nM |
| C=CC(=O)N1CCC(N2CC(C#Cc3c(-c4cccc5c4OCO5)c4c(N)ncnc4n3C)C2)CC1 [II-37] | 10 to 1000 nM | 10 to 1000 nM | 10 to 1000 nM | – |
| C=CC(=O)N1C[C@@H]2[C@@H](C#Cc3c(-c4c(Cl)ccc5c4OCO5)c4c(N)ncnc4n3C)[C@@H]2C1 [II-38] | 10 to 1000 nM | 10 to 1000 nM | 10 to 1000 nM | – |
| C=CC(=O)NCC(=O)N1C[C@@H]2[C@@H](C#Cc3c(-c4c(Cl)ccc5c4OCO5)c4c(N)ncnc4n3C)[C@@H]2C1 [II-39] | ≤ 10 nM | ≤ 10 nM | ≤ 10 nM | – |
| C=CC(=O)N1C[C@@H]2[C@@H](C#Cc3c(-c4ccc(Oc5ccccc5)cc4OC)c4c(N)ncnc4n3C)[C@@H]2C1 [II-41] | ≤ 10 nM | ≤ 10 nM | ≤ 10 nM | – |
| C=CC(=O)N1C[C@@H]2[C@@H](C#Cc3c(-c4ccc(Oc5cccc(C)n5)cc4OC)c4c(N)ncnc4n3C)[C@@H]2C1 [II-42] | 10 to 1000 nM | 10 to 1000 nM | 10 to 1000 nM | – |
| COc1cc(Oc2cccc(F)c2)ccc1-c1c(C#C[C@@H]2[C@H]3CN(C(=O)/C=C/CN(C)C)C[C@@H]23)n(C)c2ncnc(N)c12 [II-45] | 10 to 1000 nM | 10 to 1000 nM | 10 to 1000 nM | – |
| C=CC(=O)N1C[C@@H]2[C@@H](C#Cc3c(-c4ccc(Oc5cccc(C)n5)cc4OC)c4c(N)ncnc4n3CCCO)[C@@H]2C1 [II-49] | 10 to 1000 nM | 10 to 1000 nM | 10 to 1000 nM | – |
| C=CC(=O)N1C[C@@H]2[C@@H](C#Cc3c(-c4ccc(Oc5cccc(C)n5)cc4OC)c4c(N)ncnc4n3CCCS(C)(=O)=O)[C@@H]2C1 [II-52] | 10 to 1000 nM | 1000 to 10000 nM | 10 to 1000 nM | – |
| C=CC(=O)N1CC[C@@H](N2CC(C#Cc3c(-c4ccc(Cl)cc4)c4c(N)ncnc4n3C(C)C)C2)[C@@H](O)C1 [II-53] | ≤ 10 nM | 10 to 1000 nM | 10 to 1000 nM | – |
| C=CC(=O)N1CC[C@@H](N2CC(C#Cc3c(-c4ccc(Cl)cc4)c4c(N)ncnc4n3CCOC)C2)[C@@H](O)C1 [II-54] | 10 to 1000 nM | 10 to 1000 nM | 10 to 1000 nM | – |
| C=CC(=O)N1CC[C@@H](N2CC(C#Cc3c(-c4ccc(Cl)c(OC)c4)c4c(N)ncnc4n3C(C)C)C2)[C@@H](O)C1 [II-55] | ≤ 10 nM | 10 to 1000 nM | ≤ 10 nM | – |
| C=CC(=O)N1CC[C@@H](N2CC(C#Cc3c(-c4ccc(Cl)c(OC)c4)c4c(N)ncnc4n3CCOC)C2)[C@@H](O)C1 [II-56] | 10 to 1000 nM | 10 to 1000 nM | 10 to 1000 nM | – |
| C=CC(=O)N1CC[C@@H](N2CC(C#Cc3c(-c4cccc(OC)n4)c4c(N)ncnc4n3C)C2)[C@@H](O)C1 [II-61] | 10 to 1000 nM | 1000 to 10000 nM | 10 to 1000 nM | – |
| C=CC(=O)N1CC[C@@H](N2CC(C#Cc3c(-c4ccc(Cl)c(O)c4)c4c(N)ncnc4n3C)C2)[C@@H](O)C1 [II-65] | ≤ 10 nM | 10 to 1000 nM | 10 to 1000 nM | – |
| C=CC(=O)N1CC[C@@H](N2CC(C#Cc3c(-c4ccc(Cl)c(F)c4)c4c(N)ncnc4n3C)C2)[C@@H](O)C1 [II-66] | 10 to 1000 nM | 10 to 1000 nM | 10 to 1000 nM | – |
| C=CC(=O)N1CC[C@@H](N2CC(C#Cc3c(-c4ccc(C5CC5)c(OC)c4)c4c(N)ncnc4n3C)C2)[C@@H](O)C1 [II-67] | 10 to 1000 nM | 10 to 1000 nM | 10 to 1000 nM | – |
| C=CC(=O)N1CC[C@@H](N2CC(C#Cc3c(-c4ccc(OC5CC5)cc4)c4c(N)ncnc4n3C)C2)[C@@H](O)C1 [II-70] | 1000 to 10000 nM | 10 to 1000 nM | 10 to 1000 nM | – |
| C=CC(=O)N1CC[C@@H](N2CC(C#Cc3c(-c4ccc(C(F)(F)F)cc4)c4c(N)ncnc4n3C)C2)[C@@H](O)C1 [II-72] | 10 to 1000 nM | 10 to 1000 nM | 10 to 1000 nM | – |

Second part, led by results:

| IC50 (SRC) | Structure (SMILES) | IC50 (RBE cells) | IC50 [1] | IC50 ([1]; 6 h) |
| --- | --- | --- | --- | --- |
| 10 to 1000 nM | C=CC(=O)N1CC[C@@H](N2CC(C#Cc3c(-c4ccc(Cl)cc4)c4c(N)ncnc4n3C)C2)[C@@H](O)C1 [II-26] | 10 to 1000 nM | 10 to 1000 nM | – |
| 1000 to 10000 nM | C=CC(=O)N1CCC(N2CC(C#Cc3c(-c4c(Cl)ccc5c4OCO5)c4cncnc4n3C)C2)CC1 [II-29] | 1000 to 10000 nM | 1000 to 10000 nM | – |
| 1000 to 10000 nM | C=CC(=O)N1CCC(N2CC(C#Cc3c(-c4ccc(Oc5ccccc5)cc4OC)c4cncnc4n3C)C2)CC1 [II-30] | 10 to 1000 nM | – | 10 to 1000 nM |
| 10 to 1000 nM | C=CC(=O)N1C[C@@H]2[C@@H](C#Cc3c(-c4ccc(Oc5ccccc5)cc4Cl)c4c(N)ncnc4n3C)[C@@H]2C1 [II-48] | ≤ 10 nM | ≤ 10 nM | – |
| 10 to 1000 nM | C=CC(=O)N1C[C@@H]2[C@@H](C#Cc3c(-c4ccc(Oc5cccc(C)n5)cc4OC)c4c(N)ncnc4n3CS(C)(=O)=O)[C@@H]2C1 [II-50] | 1000 to 10000 nM | 1000 to 10000 nM | – |
| 10 to 1000 nM | C=CC(=O)N1C[C@@H]2[C@@H](C#Cc3c(-c4ccc(Oc5cccc(C)n5)c(OC)c4)c4c(N)ncnc4n3CS(C)(=O)=O)[C@@H]2C1 [II-51] | 10 to 1000 nM | 10 to 1000 nM | – |
| 10 to 1000 nM | C=CC(=O)N1CC[C@@H](N2CC(C#Cc3c(-c4ccc(OC5COC5)cc4)c4c(N)ncnc4n3C(C)C)C2)[C@@H](O)C1 [II-57] | 1000 to 10000 nM | 1000 to 10000 nM | – |
| 10 to 1000 nM | C=CC(=O)N1CC[C@@H](N2CC(C#Cc3c(-c4ccc(Cl)c(CF)c4)c4c(N)ncnc4n3C)C2)[C@@H](O)C1 [II-58] | 10 to 1000 nM | 10 to 1000 nM | – |
| 10 to 1000 nM | C=CC(=O)N1CC[C@@H](N2CC(C#Cc3c(-c4ccc(Cl)c(CO)c4)c4c(N)ncnc4n3C)C2)[C@@H](O)C1 [II-59] | 1000 to 10000 nM | 10 to 1000 nM | – |
| 10 to 1000 nM | C=CC(=O)N1CC[C@@H](N2CC(C#Cc3c(-c4cc(OC)c(Cl)c(OC)c4)c4c(N)ncnc4n3C)C2)[C@@H](O)C1 [II-60] | 10 to 1000 nM | 10 to 1000 nM | – |
| ≤ 10 nM | C=CC(=O)N1C[C@@H]2[C@@H](C#Cc3c(-c4ccc(Cl)c(OC)n4)c4c(N)ncnc4n3C(C)C)[C@@H]2C1 [II-62] | 10 to 1000 nM | 10 to 1000 nM | – |
| 1000 to 10000 nM | C=CC(=O)N1CC[C@@H](N2CC(C#Cc3c(-c4cccc5c4cnn5C)c4c(N)ncnc4n3C)C2)[C@@H](O)C1 [II-63, 1-((3S,4R)-4-(3-((4-amino-7-methyl-5-(1-methyl-1H-indazol-4-yl)-7H-pyrrolo[2,3-d]pyrimidin-6-yl)ethynyl)azetidin-1-yl)-3-hydroxypiperidin-1-yl)prop-2-en-1-one] | 1000 to 10000 nM | – | 1000 to 10000 nM |
| 10 to 1000 nM | C=CC(=O)N1CC[C@@H](N2CC(C#Cc3c(-c4ccc(Cl)c(C)c4)c4c(N)ncnc4n3C)C2)[C@@H](O)C1 [II-64] | 10 to 1000 nM | 10 to 1000 nM | – |
| 1000 to 10000 nM | C=CC(=O)N1CC[C@@H](N2CC(C#Cc3c(-c4ccc(OC5CC5)c(OC)c4)c4c(N)ncnc4n3C)C2)[C@@H](O)C1 [II-68] | 1000 to 10000 nM | 10 to 1000 nM | – |
| 10 to 1000 nM | C=CC(=O)N1CC[C@@H](N2CC(C#Cc3c(-c4ccc(C5CC5)cc4)c4c(N)ncnc4n3C)C2)[C@@H](O)C1 [II-69] | 10 to 1000 nM | 10 to 1000 nM | – |
| 10 to 1000 nM | C=CC(=O)N1CC[C@@H](N2CC(C#Cc3c(-c4ccc(OC(C)C)c(OC)c4)c4c(N)ncnc4n3C)C2)[C@@H](O)C1 [II-71] | 10 to 1000 nM | 10 to 1000 nM | – |
| 10 to 1000 nM | C=CC(=O)N1CC[C@@H](N2CC(C#Cc3c(-c4ccc(OC(F)(F)F)cc4)c4c(N)ncnc4n3C)C2)[C@@H](O)C1 [II-73] | 10 to 1000 nM | 10 to 1000 nM | – |
